In US20180099931A1 (AbbVie S.à.r.l., priority 2016, published 2018):
Read-outs that look alike come from different tables or passages of the source.

Target: T1, F508delCFTR (Homo sapiens, UniProt P13569, DEL508-508)
T1 construct: expressed in transfected cells; host or cells: CFBE41o- human lung-derived epithelial cells (CFBE4lo-F508delCFTR-HRP), doxycycline-inducible
Assay: Cell Surface Expression-Horse Radish Peroxidase (CSE-HRP) Assay;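 for Maximum % activity (with co-corrector): co-corrector and positive control are both the same reference corrector at 2 µM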;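 for Maximum % activity (without co-corrector): percent of the 2 µM on-plate positive control corrector response above DMSO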
Assay type: cell-based
Settings: for Emax: read-out: Maximum % activity (without co-corrector)

[1] = test compound without co-corrector, read-out: EC50 (without co-corrector)
[2] = with co-corrector (2 μM of 3-[(2R,4R)-4-({[1-(2,2-difluoro-1,3-benzodioxol-5-yl)cyclopropyl]carbonyl}amino)-7-methoxy-3,4-dihydro-2H-chromen-2-yl]benzoic acid), read-out: EC50 (with co-corrector)
[3] = with co-corrector (2 μM), maximum at any tested concentration, normalized to on-plate positive control
[4] = without co-corrector, maximum at any tested concentration, normalized to on-plate positive control
[5] = CSE-HRP, test compound without co-corrector, read-out: EC50 (without co-corrector)
[6] = CSE-HRP, with co-corrector (2 μM of 3-[(2R,4R)-4-({[1-(2,2-difluoro-1,3-benzodioxol-5-yl)cyclopropyl]carbonyl}amino)-7-methoxy-3,4-dihydro-2H-chromen-2-yl]benzoic acid), read-out: EC50 (with co-corrector)
[7] = CSE-HRP, with co-corrector (2 μM), maximum at any tested concentration, normalized to on-plate positive control
[8] = CSE-HRP, without co-corrector, maximum at any tested concentration, normalized to on-plate positive control
[9] = test compound without co-corrector, maximum at any tested concentration, normalized to on-plate positive control
[10] = with co-corrector (2 μM of 3-[(2R,4R)-4-({[1-(2,2-difluoro-1,3-benzodioxol-5-yl)cyclopropyl]carbonyl}amino)-7-methoxy-3,4-dihydro-2H-chromen-2-yl]benzoic acid), maximum at any tested concentration, normalized to on-plate positive control

T1 sequence (P13569 with tags, fused parts or gaps DEL508-508): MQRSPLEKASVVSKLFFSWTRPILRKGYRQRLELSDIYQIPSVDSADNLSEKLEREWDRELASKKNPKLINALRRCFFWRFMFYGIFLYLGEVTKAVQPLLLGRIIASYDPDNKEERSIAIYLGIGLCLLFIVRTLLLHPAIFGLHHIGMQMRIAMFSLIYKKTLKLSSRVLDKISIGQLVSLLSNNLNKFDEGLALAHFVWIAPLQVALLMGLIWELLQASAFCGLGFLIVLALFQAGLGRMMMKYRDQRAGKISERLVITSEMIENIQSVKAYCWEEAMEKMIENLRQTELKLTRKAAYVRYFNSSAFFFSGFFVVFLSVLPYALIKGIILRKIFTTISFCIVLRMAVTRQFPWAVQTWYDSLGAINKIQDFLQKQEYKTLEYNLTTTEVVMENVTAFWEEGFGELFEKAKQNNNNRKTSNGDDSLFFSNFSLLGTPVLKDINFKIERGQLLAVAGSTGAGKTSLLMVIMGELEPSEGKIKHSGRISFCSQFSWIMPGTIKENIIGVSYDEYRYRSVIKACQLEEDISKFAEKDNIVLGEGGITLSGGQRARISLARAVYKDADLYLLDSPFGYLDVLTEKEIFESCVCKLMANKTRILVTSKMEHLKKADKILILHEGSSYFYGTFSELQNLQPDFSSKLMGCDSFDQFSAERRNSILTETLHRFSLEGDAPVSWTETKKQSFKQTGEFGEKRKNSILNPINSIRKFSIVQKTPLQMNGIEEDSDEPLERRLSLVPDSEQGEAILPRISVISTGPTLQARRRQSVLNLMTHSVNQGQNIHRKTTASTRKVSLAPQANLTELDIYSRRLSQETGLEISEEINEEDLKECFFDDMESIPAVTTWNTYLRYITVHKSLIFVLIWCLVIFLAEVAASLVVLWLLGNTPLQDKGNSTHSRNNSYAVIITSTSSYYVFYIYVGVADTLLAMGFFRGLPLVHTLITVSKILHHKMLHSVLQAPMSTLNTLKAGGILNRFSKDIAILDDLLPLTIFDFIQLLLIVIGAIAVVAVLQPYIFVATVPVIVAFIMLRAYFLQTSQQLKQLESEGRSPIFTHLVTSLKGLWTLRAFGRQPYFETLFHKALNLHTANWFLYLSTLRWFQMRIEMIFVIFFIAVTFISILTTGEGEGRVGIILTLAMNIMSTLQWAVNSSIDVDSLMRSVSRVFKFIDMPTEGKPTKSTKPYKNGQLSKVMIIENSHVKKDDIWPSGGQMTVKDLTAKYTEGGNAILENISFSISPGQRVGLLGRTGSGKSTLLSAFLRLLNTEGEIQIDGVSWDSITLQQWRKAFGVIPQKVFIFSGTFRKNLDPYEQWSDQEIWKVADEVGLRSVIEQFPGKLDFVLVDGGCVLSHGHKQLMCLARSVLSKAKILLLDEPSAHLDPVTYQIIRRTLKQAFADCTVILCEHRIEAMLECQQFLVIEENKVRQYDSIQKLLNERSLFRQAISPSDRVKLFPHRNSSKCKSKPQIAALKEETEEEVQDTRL

## COc1ccc(C(C)(C)C)cc1CN[C@H]1[C@H](C(C)(C)C)[C@@H](C(=O)O)N(C(=O)C2CCCC(F)(F)C2)[C@H]1c1cccnc1N(C)C (single isomer, unassigned) [Example 44, (2S,3S,4S,5S)-3-tert-butyl-4-{[(5-tert-butyl-2-methoxyphenyl)methyl]amino}-1-[(1S*)-3,3-difluorocyclohexane-1-carbonyl]-5-[2-(dimethylamino)pyridin-3-yl]pyrrolidine-2-carboxylic acid]
[1]
  EC50: 1000 to 10000 nM
[2]
  EC50: < 1000 nM
[3]
  Maximum % activity (with co-corrector): +++ (≥350)
[4]
  Maximum % activity (without co-corrector): +++ (≥200)

## COc1cc(C(F)(F)F)ccc1CN[C@H]1[C@H](C(C)(C)C)[C@@H](C(=O)O)N(C(=O)C2CCCC(F)(F)C2)[C@H]1c1cccnc1OC (relative stereo) [Example I-257]
[5]
  EC50: 1000 to 10000 nM
[6]
  EC50: < 1000 nM
[7]
  Maximum % activity (with co-corrector): +++ (≥350)
[8]
  Emax: 100 to 200%

## COc1ccc(C(C)(C)C)cc1CN[C@H]1[C@H](C(C)(C)C)[C@@H](C(=O)O)N(C(=O)[C@@H](Cc2ccccc2)OC)[C@H]1c1ccccc1 [Example 32, (2S,3S,4S,5S)-3-tert-butyl-4-{[(5-tert-butyl-2-methoxyphenyl)methyl]amino}-1-[(2R)-2-methoxy-3-phenylpropanoyl]-5-phenylpyrrolidine-2-carboxylic acid]
[1]
  EC50: 1000 to 10000 nM
[2]
  EC50: < 1000 nM
[3]
  Maximum % activity (with co-corrector): +++ (≥350)
[4]
  Emax: > 200%

## COc1ncc(-c2ccc(F)cc2F)cc1CN[C@H]1[C@H](C(C)(C)C)[C@@H](C(=O)O)N(C(=O)C2CCCCC2)[C@H]1c1cccnc1N(C)C [II-406]
[9]
  Emax: 100 to 200%
[1]
  EC50: < 1000 nM
[10]
  Maximum % activity (with co-corrector): +++ (≥350)
[2]
  EC50: < 1000 nM

## COc1ccc(C(C)(C)C)cc1CN[C@H]1[C@H](C(C)(C)C)[C@@H](C(=O)O)N(C(=O)OC(C)C)[C@H]1c1ccccc1C(C)C [Example 61, (2S,3S,4S,5S)-3-tert-butyl-4-{[(5-tert-butyl-2-methoxyphenyl)methyl]amino}-1-{[(propan-2-yl)oxy]carbonyl}-5-[2-(propan-2-yl)phenyl]pyrrolidine-2-carboxylic acid]
[1]
  EC50: < 1000 nM
[2]
  EC50: < 1000 nM
[3]
  Maximum % activity (with co-corrector): +++ (≥350)
[4]
  Emax: > 200%

## COc1ccc(C(F)(F)F)cc1CN[C@H]1[C@H](C(C)(C)C)[C@@H](C(=O)O)N(C(=O)[C@@H](C)OC)[C@H]1c1ccccc1 [II-120]
[5]
  EC50: 1000 to 10000 nM
[6]
  EC50: 1000 to 10000 nM
[7]
  Maximum % activity (with co-corrector): +++ (≥350)
[8]
  Emax: 100 to 200%

## COc1cc(C(F)(F)F)ccc1CN[C@H]1[C@H](C(C)(C)C)[C@@H](C(=O)O)N(C(=O)C2CCCCC2)[C@H]1c1ccccc1OC (stereo in doubt) [II-50]
[5]
  EC50: < 1000 nM
[6]
  EC50: < 1000 nM
[7]
  Maximum % activity (with co-corrector): +++ (≥350)
[8]
  Emax: 100 to 200%

## COc1ccc(C(C)(C)C)cc1CN[C@H]1[C@H](C(C)(C)C)[C@@H](C(=O)O)N(C(=O)[C@]2(C)COc3cc4c(cc32)OC(F)(F)O4)[C@H]1c1cccnc1OC [III-230]
[9]
  Emax: < 100%
[1]
  EC50: 1000 to 10000 nM
[2]
  EC50: 1000 to 10000 nM
[3]
  Maximum % activity (with co-corrector): ++ (≥150 and <350)

## COc1ncc(C(F)(F)F)cc1CN[C@H]1[C@H](C(C)(C)C)[C@@H](C(=O)O)N(C(=O)[C@@H]2CCCCO2)[C@H]1c1ccccc1C1CC1 [Example 116, (2S,3S,4S,5S)-3-tert-butyl-5-(2-cyclopropylphenyl)-4-({[2-methoxy-5-(trifluoromethyl)pyridin-3-yl]methyl}amino)-1-[(2S)-oxane-2-carbonyl]pyrrolidine-2-carboxylic acid]
[1]
  EC50: 1000 to 10000 nM
[2]
  EC50: < 1000 nM
[3]
  Maximum % activity (with co-corrector): +++ (≥350)
[4]
  Emax: > 200%

## CO[C@@H](C(=O)N1[C@H](C(=O)O)[C@@H](C(C)(C)C)[C@H](Nc2cc(C(F)(F)F)cc(C)n2)[C@@H]1c1ccccc1)c1ccccc1 [III-78]
[9]
  Emax: < 100%
[1]
  EC50: > 10000 nM
[10]
  Maximum % activity (with co-corrector): ++ (≥150 and <350)
[2]
  EC50: 1000 to 10000 nM

## COc1ccc(C(F)(F)F)cc1CN[C@H]1[C@H](C(C)(C)C)[C@@H](C(=O)O)N(C(=O)C2CCCO2)[C@H]1c1ccccc1 (mixture of isomers) [II-59]
[5]
  EC50: 1000 to 10000 nM
[6]
  EC50: 1000 to 10000 nM
[7]
  Maximum % activity (with co-corrector): +++ (≥350)
[8]
  Emax: 100 to 200%

## COc1cc(C(F)(F)F)ccc1CN[C@H]1[C@H](C(C)(C)C)[C@@H](C(=O)O)N(C(=O)C2CCCC(F)(F)C2)[C@H]1c1ccccc1 (stereo partly shown) [II-508]
[9]
  Emax: 100 to 200%
[1]
  EC50: 1000 to 10000 nM
[10]
  Maximum % activity (with co-corrector): +++ (≥350)
[2]
  EC50: < 1000 nM

## COc1ccc(C(F)(F)F)cc1CN[C@H]1[C@H](C(C)(C)C)[C@@H](C(=O)O)N(C(=O)[C@H](OC)c2ccccc2)[C@H]1c1cccnc1N(C)C (racemic) [II-33]
[5]
  EC50: 1000 to 10000 nM
[6]
  EC50: 1000 to 10000 nM
[7]
  Maximum % activity (with co-corrector): +++ (≥350)
[8]
  Emax: 100 to 200%

## COc1cc(C(F)(F)F)ccc1CN[C@H]1[C@H](C(C)(C)C)[C@@H](C(=O)O)N(C(=O)OC(C)C)[C@H]1c1cccnc1OC(C)C [Example 81, (2S,3S,4S,5S)-3-tert-butyl-4-({[2-methoxy-4-(trifluoromethyl)phenyl]methyl}amino)-1-{[(propan-2-yl)oxy]carbonyl}-5-{2-[(propan-2-yl)oxy]pyridin-3-yl}pyrrolidine-2-carboxylic acid]
[1]
  EC50: 1000 to 10000 nM
[2]
  EC50: 1000 to 10000 nM
[3]
  Maximum % activity (with co-corrector): +++ (≥350)
[4]
  Emax: 100 to 200%

## COc1ccc(C(C)(C)C)cc1CN[C@H]1[C@H](C(C)(C)C)[C@@H](C(=O)O)N(C(=O)c2c(OC)cnn2C)[C@H]1c1ccccc1 [II-207]
[5]
  EC50: 1000 to 10000 nM
[6]
  EC50: 1000 to 10000 nM
[7]
  Maximum % activity (with co-corrector): +++ (≥350)
[8]
  Emax: 100 to 200%

## COc1cccc([C@H]2[C@@H](NCc3cc(C(F)(F)F)ccc3OC)[C@H](C(C)(C)C)[C@@H](C(=O)O)N2C(=O)C2CCCOC2)n1 (mixture of isomers) [III-69]
[9]
  Emax: < 100%
[1]
  EC50: 1000 to 10000 nM
[10]
  Maximum % activity (with co-corrector): +++ (≥350)
[2]
  EC50: 1000 to 10000 nM

## COc1ccc(-c2cccnc2)cc1CN[C@H]1[C@H](C(C)(C)C)[C@@H](C(=O)O)N(C(=O)C2CCCCC2)[C@H]1c1ccccc1 [II-284]
[5]
  EC50: 1000 to 10000 nM
[6]
  EC50: 1000 to 10000 nM
[7]
  Maximum % activity (with co-corrector): +++ (≥350)
[8]
  Emax: < 100%

## COc1ccc(C(C)(C)C)cc1CN[C@H]1[C@H](C(C)(C)C)[C@@H](C(=O)O)N(C(=O)C2CCCCC2)[C@H]1c1cccnc1N(C)C [Example I-52]
[1]
  EC50: < 1000 nM
[2]
  EC50: < 1000 nM
[3]
  Maximum % activity (with co-corrector): +++ (≥350)
[4]
  Emax: > 200%

## COCCOc1ncc(C(F)(F)F)cc1CN[C@@H]1[C@@H](C(C)(C)C)[C@H](C(=O)O)N(C(=O)C2CCCCC2)[C@@H]1c1ccccc1 (racemic) [III-80]
[9]
  Emax: < 100%
[1]
  EC50: > 10000 nM
[10]
  Maximum % activity (with co-corrector): ++ (≥150 and <350)
[2]
  EC50: 1000 to 10000 nM

## COc1ccc(C2(C(F)(F)F)CC2)cc1CN[C@H]1[C@H](C(C)(C)C)[C@@H](C(=O)O)N(C(=O)C2Cc3ccccc3O2)[C@H]1c1cccnc1N(C)C (single isomer, unassigned) [Example I-175]
[1]
  EC50: < 1000 nM
[2]
  EC50: < 1000 nM
With co-corrector (2 μM), maximum at any tested concentration, normalized to on-plate positive control, 2 µM
  Maximum % activity (with co-corrector): +++ (≥350)
[4]
  Emax: < 100%

## COc1ccc(C(F)(F)F)cc1CN[C@H]1[C@H](C(C)(C)C)[C@@H](C(=O)O)N(C(=O)OC(C)C)[C@H]1c1cccnc1OC(C)C [Example 78, (2S,3S,4S,5S)-3-tert-butyl-4-({[2-methoxy-5-(trifluoromethyl)phenyl]methyl}amino)-1-{[(propan-2-yl)oxy]carbonyl}-5-{2-[(propan-2-yl)oxy]pyridin-3-yl}pyrrolidine-2-carboxylic acid]
[1]
  EC50: 1000 to 10000 nM
[2]
  EC50: 1000 to 10000 nM
[3]
  Maximum % activity (with co-corrector): +++ (≥350)
[4]
  Emax: > 200%

## COc1cc(C(F)(F)F)ccc1CN[C@H]1[C@H](C(C)(C)C)[C@@H](C(=O)O)N(C(=O)[C@@H]2CCCCO2)[C@H]1c1cccnc1N(C)C [II-495]
[9]
  Emax: > 200%
[1]
  EC50: 1000 to 10000 nM
[10]
  Maximum % activity (with co-corrector): +++ (≥350)
[2]
  EC50: 1000 to 10000 nM

## COc1nc(C(C)(C)C)ccc1CN[C@H]1[C@H](C(C)(C)C)[C@@H](C(=O)O)N(C(=O)C2CCCC(OC)C2)[C@H]1c1ccccc1 (stereo partly shown) [Example I-197]
[1]
  EC50: 1000 to 10000 nM
[2]
  EC50: 1000 to 10000 nM
[3]
  Maximum % activity (with co-corrector): +++ (≥350)
[4]
  Emax: > 200%

## COc1ccc(C(C)(C)C)cc1CN[C@H]1[C@H](C(C)(C)C)[C@@H](C(=O)O)N(C(=O)[C@H]2CCCO2)[C@H]1c1ccccc1 [II-322]
[9]
  Emax: 100 to 200%
[1]
  EC50: 1000 to 10000 nM
[10]
  Maximum % activity (with co-corrector): +++ (≥350)
[2]
  EC50: 1000 to 10000 nM

## COc1ccc(Cl)cc1CN[C@H]1[C@H](C(C)(C)C)[C@@H](C(=O)O)N(C(=O)[C@H](OC)c2ccccc2)[C@H]1c1ccccc1N(C)C [II-63]
[5]
  EC50: 1000 to 10000 nM
[6]
  EC50: 1000 to 10000 nM
[7]
  Maximum % activity (with co-corrector): +++ (≥350)
[8]
  Emax: > 200%
